SMILES strings stand for the structures. Read-outs that look alike come from different tables or passages of the source. Numbered stars: 1 amine (or outer) side, 2 acyl side, 3 side chain; on linkers, the order of the positions; unused ones are H or OH. Square brackets hold non-standard residues; d marks the D form. Peptide text beside a SMILES is read from it. * marks the point of attachment. X8 = CN1CCN(S(=O)(=O)N[C@@H](Cc2ccccc2)C(=O)*)CC1; Propanoyl(3-(3,4-F2Ph)) = O=C(CCc1ccc(F)c(F)c1)*; Propanoyl(3-(4-F-phenyl)) = O=C(CCc1ccc(F)cc1)*; Trp(5-F) = N[C@@H](Cc1c[nH]c2ccc(F)cc12)C(=O)O; dTrp(5-F) = N[C@H](Cc1c[nH]c2ccc(F)cc12)C(=O)O; Hydrocinnamoyl(2,4-F2) = O=C(CCc1ccc(F)cc1F)*; dPhe(4-Cl) = N[C@H](Cc1ccc(Cl)cc1)C(=O)O; 1Nal = N[C@@H](Cc1cccc2ccccc12)C(=O)O; 2Nal = N[C@@H](Cc1ccc2ccccc2c1)C(=O)O; d1Nal = N[C@H](Cc1cccc2ccccc12)C(=O)O; NMeY = CN[C@@H](Cc1ccc(O)cc1)C(=O)O; Piperazinyl(4-Me) = CN1CCN(*)CC1; Nicotinoyl = O=C(c1cccnc1)*; X3 = O=C(CCc1ccc2ccccc2c1)*; Morpholide = C1CN(*)CCO1; CO = O=C([*:1])[*:2]

Consider 18 compounds from patent US5140009A (Tap Pharmaceuticals, Inc., priority 1990, dated 1992).

The target in this assay is T1, LHRH receptors (Rattus norvegicus, UniProt P30969).
T1 construct: Pituitary membranes containing LHRH receptors are prepared in batches from quick-frozen rat pituitaries; tissue Hilltop Labs; host or cells: rat pituitary membranes
T1 sequence (P30969 1-327): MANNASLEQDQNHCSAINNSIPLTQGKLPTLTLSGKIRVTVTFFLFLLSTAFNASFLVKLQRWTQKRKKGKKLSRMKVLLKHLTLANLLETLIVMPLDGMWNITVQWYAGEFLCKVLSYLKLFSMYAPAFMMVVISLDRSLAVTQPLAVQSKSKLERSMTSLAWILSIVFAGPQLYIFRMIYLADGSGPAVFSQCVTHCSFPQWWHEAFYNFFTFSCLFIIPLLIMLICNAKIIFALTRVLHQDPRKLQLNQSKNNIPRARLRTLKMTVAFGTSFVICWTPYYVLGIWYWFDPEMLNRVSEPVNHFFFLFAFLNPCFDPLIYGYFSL
The assay can be described thus: Receptor Binding (radioligand receptor binding assay). As to conditions: rat pituitary membranes, 2 hours at 4° C., read-out: Receptor Binding pkI (converted).

The mark [1] stands for this setting: table 3, radioiodinated [D-Leu^6 -des Gly^10 ]-LHRH ethyl amide 50 pM.

Consider `CCNC(=O)[C@@H]1CCCN1C(=O)[C@H](CCCNC(=N)N)NC(=O)[C@H](CC(C)C)NC(=O)[C@@H](Cc1c[nH]c2ccccc12)NC(=O)[C@H](Cc1ccc(O)cc1)NC(=O)[C@H](CO)NC(=O)[C@H](Cc1c[nH]c2ccccc12)NC(=O)[C@H](Cc1ccccc1)NC(=O)N1CCN(C)CC1` [Compound 128, (2-9)[N-(N-alpha-N-methylpiperazinocarbonyl)-Phe^2 -D-Trp^6 -Pro^9 NHEt]LHRH] ({Piperazinyl(4-Me)-CO}-FWSY[dW]LRP-NHEt), for which, under setting [1], the Ki is 0.447 nM.
Still for that read-out and setting: the result for `CCNC(=O)[C@@H]1CCCN1C(=O)[C@H](CCCNC(=N)N)NC(=O)[C@H](CC(C)C)NC(=O)[C@@H](Cc1c[nH]c2ccccc12)NC(=O)[C@H](Cc1ccc(O)cc1)NC(=O)[C@H](CO)NC(=O)[C@H](Cc1c[nH]c2ccccc12)NC(=O)[C@H](Cc1ccccc1)NS(=O)(=O)N1CCN(C)CC1` [Compound 129, N-(N-alpha-(N-Methylpiperazinosulfonyl))-Phe-Trp-Ser-Tyr -D-Trp-Leu-Arg-ProNHEt] (X8-WSY[dW]LRP-NHEt) reads 1.86 nM; that for `CCNC(=O)[C@@H]1CCCN1C(=O)[C@H](CCCNC(=N)N)NC(=O)[C@H](CC(C)C)NC(=O)[C@@H](Cc1c[nH]c2ccccc12)NC(=O)[C@H](Cc1ccc(O)cc1)NC(=O)[C@H](CO)NC(=O)[C@H](Cc1c[nH]c2ccccc12)NC(=O)[C@H](Cc1ccccc1)NC(=O)CCc1ccc2ccccc2c1` [Compound 133, N-3-(2-Naphthyl)propionyl-Phe-Trp-Ser-Tyr-D-Trp-Leu-Arg -Pro-NHEt] (X3-FWSY[dW]LRP-NHEt), 1.45 nM; that for `CCNC(=O)[C@@H]1CCCN1C(=O)[C@H](CCCNC(=N)N)NC(=O)[C@H](CC(C)C)NC(=O)[C@@H](Cc1c[nH]c2ccccc12)NC(=O)[C@H](Cc1ccc(O)cc1)NC(=O)[C@H](CO)NC(=O)[C@H](Cc1c[nH]c2ccccc12)NC(=O)[C@@H](Cc1ccccc1)NC(C)=O` [Compound 134, N-Acetyl-D-Phe-Trp-Ser-Tyr-D-Trp-Leu-Arg-ProNHEt] (Ac-[dF]WSY[dW]LRP-NHEt), 0.398 nM.
Consider `CCNC(=O)[C@@H]1CCCN1C(=O)[C@H](CCCNC(=N)N)NC(=O)[C@H](CC(C)C)NC(=O)[C@@H](Cc1c[nH]c2ccccc12)NC(=O)[C@H](Cc1ccc(O)cc1)NC(=O)[C@H](CO)NC(=O)[C@H](Cc1cccc2ccccc12)NC(=O)N1CCOCC1` [Compound 137, N-(N-alpha-Morpholinocarbonyl)-1-Nal-Ser-Tyr-D-Trp-Leu -Arg-ProNHEt] ({Morpholide-CO}-[1Nal]SY[dW]LRP-NHEt), for which the Ki under setting [1] is 0.263 nM.
Still for that read-out and setting: the result for `CCNC(=O)[C@@H]1CCCN1C(=O)[C@H](CCCNC(=N)N)NC(=O)[C@H](CC(C)C)NC(=O)[C@@H](Cc1c[nH]c2ccccc12)NC(=O)[C@H](Cc1ccc(O)cc1)NC(=O)[C@H](CO)NC(=O)[C@H](Cc1ccc2ccccc2c1)NC(=O)N1CCOCC1` [Compound 138, N-(N-alpha-morpholinocarbonyl) -2-Nal-Ser-Tyr-D-Trp-Leu-Arg-ProNHEt] ({Morpholide-CO}-[2Nal]SY[dW]LRP-NHEt) reads 1 nM.
`CCNC(=O)[C@@H]1CCCN1C(=O)[C@H](CCCNC(=N)N)NC(=O)[C@H](CC(C)C)NC(=O)[C@@H](Cc1c[nH]c2ccccc12)NC(=O)[C@H](Cc1ccc(O)cc1)NC(=O)[C@H](CO)NC(=O)[C@@H](Cc1ccc(Cl)cc1)NC(=O)CCc1ccc(F)cc1` [Compound 140, (3-9) [N-(3-(4-Fluorophenyl)propionyl) -D-4-Cl-Phe^3 -D-Trp^6 -Pro^9 NHEt]LHRH] ({Propanoyl(3-(4-F-phenyl))}-[dPhe(4-Cl)]SY[dW]LRP-NHEt): for the setting “table 4, radioligand 50 pM”, the Ki was 0.0891 nM.
Consider `CCNC(=O)[C@@H]1CCCN1C(=O)[C@H](CCCN=C(N)N)NC(=O)[C@H](CC(C)C)NC(=O)[C@@H](Cc1c[nH]c2ccccc12)NC(=O)[C@H](Cc1ccc(O)cc1)NC(=O)[C@H](CO)NC(=O)[C@@H](Cc1ccc(O)cc1)NC(=O)CCc1ccc(F)cc1` [Compound 141, (3-9)[N-(3-(4-Fluorophenyl)propionyl) -D-Tyr^3 -D-Trp^6 -Pro^9 NHEt]LHRH] ({Propanoyl(3-(4-F-phenyl))}-[dY]SY[dW]LRP-NHEt), for which, where the note is “table 4, radioligand 50 pM”, the Ki is 0.0257 nM.
Same read-out and setting: next, `CCNC(=O)[C@@H]1CCCN1C(=O)[C@H](CCCNC(=N)N)NC(=O)[C@H](CC(C)C)NC(=O)[C@@H](Cc1c[nH]c2ccccc12)NC(=O)[C@H](Cc1ccc(O)cc1)NC(=O)[C@H](CO)NC(=O)[C@H](Cc1c[nH]c2ccc(F)cc12)NC(=O)CCc1ccc(F)cc1` [Compound 142, (3-9)[N-(3-(4-Fluorophenyl)propionyl) -5-F-Trp^3 -D-Trp^6 -Pro^9 NHEt]LHRH] ({Propanoyl(3-(4-F-phenyl))}-[Trp(5-F)]SY[dW]LRP-NHEt): 0.0724 nM; `CCNC(=O)[C@@H]1CCCN1C(=O)[C@H](CCCNC(=N)N)NC(=O)[C@H](CC(C)C)NC(=O)[C@@H](Cc1c[nH]c2ccccc12)NC(=O)[C@H](Cc1ccc(O)cc1)NC(=O)[C@H](CO)NC(=O)[C@@H](Cc1c[nH]c2ccc(F)cc12)NC(=O)CCc1ccc(F)cc1` [Compound 143, (3-9)[N-(3-(4-Fluorophenyl)propionyl)-D -5-F-Trp^3 -D-Trp^6 -Pro^9 NHEt]LHRH] ({Propanoyl(3-(4-F-phenyl))}-[dTrp(5-F)]SY[dW]LRP-NHEt): 0.049 nM; `CCNC(=O)[C@@H]1CCCN1C(=O)[C@H](CCCN=C(N)N)NC(=O)[C@H](CC(C)C)NC(=O)[C@@H](Cc1c[nH]c2ccccc12)NC(=O)[C@H](Cc1ccc(O)cc1)NC(=O)[C@H](CO)NC(=O)[C@H](Cc1cccc2ccccc12)NC(=O)CCc1ccc(F)cc1` [Compound 144, (3-9)[N-(3-(4-Fluorophenyl)propionyl) -1-Nal^3 -D-Trp^6 -Pro^9 NHEt]LHRH] ({Propanoyl(3-(4-F-phenyl))}-[1Nal]SY[dW]LRP-NHEt): 0.0257 nM.
Still for that read-out and setting: next, `CCNC(=O)[C@@H]1CCCN1C(=O)[C@H](CCCN=C(N)N)NC(=O)[C@H](CC(C)C)NC(=O)[C@@H](Cc1c[nH]c2ccccc12)NC(=O)[C@H](Cc1ccc(O)cc1)NC(=O)[C@H](CO)NC(=O)[C@@H](Cc1cccc2ccccc12)NC(=O)CCc1ccc(F)cc1` [Compound 145, (3-9)[N-(3-(4-Fluorophenyl)propionyl) -D-1-Nal^3 -D-Trp^6 -Pro^9 NHEt]LHRH] ({Propanoyl(3-(4-F-phenyl))}-[d1Nal]SY[dW]LRP-NHEt): 0.0251 nM.
`CCNC(=O)[C@@H]1CCCN1C(=O)[C@H](CCCN=C(N)N)NC(=O)[C@H](CC(C)C)NC(=O)[C@@H](Cc1c[nH]c2ccccc12)NC(=O)[C@H](Cc1ccc(O)cc1)NC(=O)[C@H](CO)NC(=O)[C@H]1CCCN1C(=O)CCc1ccc(F)cc1` [Compound 147, (3-9)[N-(3-(4-Fluorophenyl)propionyl) -D-Pro^3 -D-Trp^6 -Pro^9 NHEt]LHRH] ({Propanoyl(3-(4-F-phenyl))}-[dP]SY[dW]LRP-NHEt): under “table 4, radioligand 50 pM”, the Ki was 0.02 nM.
As for `CCNC(=O)[C@@H]1CCCN1C(=O)[C@H](CCCNC(=N)N)NC(=O)[C@H](CC(C)C)NC(=O)[C@@H](Cc1c[nH]c2ccccc12)NC(=O)[C@H](Cc1ccc(O)cc1)NC(=O)[C@H](CO)NC(=O)[C@@H]1CCCN1C(=O)CCc1ccc(F)cc1` [Compound 148, (3-9)[N-(3-(4-Fluorophenyl)propionyl) -Pro^3 -D-Trp^6 -Pro^9 NHEt]LHRH] ({Propanoyl(3-(4-F-phenyl))}-PSY[dW]LRP-NHEt), the Ki (table 4, radioligand 50 pM) is 0.055 nM.
The same measure, in the same setting: the result for `CCNC(=O)[C@@H]1CCCN1C(=O)[C@H](CCCNC(=N)N)NC(=O)[C@H](CC(C)C)NC(=O)[C@@H](Cc1ccc(Cl)cc1)NC(=O)[C@H](Cc1ccc(O)cc1)NC(=O)[C@H](CO)NC(=O)[C@@H](Cc1c[nH]c2ccccc12)NC(=O)CCc1ccc(F)cc1` [Compound 149, (3-9)[N-(3-(4-Fluorophenyl)propionyl) -D-Trp3-D-4-Cl-Phe^6 -Pro^9 NHEt]LHRH] ({Propanoyl(3-(4-F-phenyl))}-[dW]SY[dPhe(4-Cl)]LRP-NHEt) reads 0.0295 nM; that for `CCNC(=O)[C@@H]1CCCN1C(=O)[C@H](CCCN=C(N)N)NC(=O)[C@H](CC(C)C)NC(=O)[C@@H](Cc1ccc(O)cc1)NC(=O)[C@H](Cc1ccc(O)cc1)NC(=O)[C@H](CO)NC(=O)[C@@H](Cc1c[nH]c2ccccc12)NC(=O)CCc1ccc(F)cc1` [Compound 150, (3-9)[N-(3-(4-Fluorophenyl)propionyl) -D-Trp^3 -D-Tyr^6 -Pro^9 NHEt]LHRH] ({Propanoyl(3-(4-F-phenyl))}-[dW]SY[dY]LRP-NHEt), 0.0102 nM.
Turning to `CCNC(=O)[C@@H]1CCCN1C(=O)[C@H](CCCN=C(N)N)NC(=O)[C@H](CC(C)C)NC(=O)[C@@H](Cc1c[nH]c2ccccc12)NC(=O)[C@H](Cc1ccc(O)cc1)NC(=O)[C@H](CO)NC(=O)[C@@H](Cc1c[nH]c2ccccc12)NC(=O)CCc1ccc(F)c(F)c1` [Compound 151, (3-9)[N-(3-(3,4-diFluorophenyl)propionyl) -D-Trp^3,6 -Pro^9 NHEt]LHRH] ({Propanoyl(3-(3,4-F2Ph))}-[dW]SY[dW]LRP-NHEt), the Ki (table 4, radioligand 50 pM) was 0.0282 nM.
As to `CCNC(=O)[C@@H]1CCCN1C(=O)[C@H](CCCN=C(N)N)NC(=O)[C@H](CC(C)C)NC(=O)[C@@H](CCCCNC(=O)c1cccnc1)NC(=O)[C@H](Cc1ccc(O)cc1)N(C)C(=O)[C@H](CO)NC(=O)[C@@H](Cc1c[nH]c2ccccc12)NC(=O)CCc1ccc(F)cc1F` [Compound 152, (3-9)[N-(3-(2,4-diFluorophenyl)propionyl) -D-Trp^3 -NMeTyr^5 -D-Lys^6 (N-epsilon-nicotinyl)-Pro^9 NHEt]LHRH] ({Hydrocinnamoyl(2,4-F2)}-[dW]S[NMeY][dK](Nicotinoyl)LRP-NHEt), for the setting “table 4, radioligand 50 pM”, the Ki was 0.0214 nM.
